{
  "source": "patent US11840686B2",
  "about": "“Modulation of prekallikrein (PKK) expression” (Ionis Pharmaceuticals, Inc., priority 2013, dated 2023)",
  "note": "Strand notation (5' to 3'): a small letter for the sugar, then the base; units joined by * are phosphorothioate-linked, units joined directly phosphodiester-linked; [ ] holds rarer units or linkages, { } end groups; capitals alone tell only the bases. e = 2'-O-(2-methoxyethyl) (MOE); [5mC] = 5-methylcytosine; d = 2'-deoxy (DNA)",
  "data": [
    {"test_system": "human PKK mRNA", "experiment": "Antisense inhibition of human PKK mRNA in HepaRG cells, 3,000 nM (Example 1)", "assay_type": "cell-based", "settings": "Table 1; PKK mRNA, HepaRG cells, 3,000 nM, electroporation, ~24 h, relative to untreated control cells", "how_it_was_run": "(§1)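 Values give percent PKK mRNA reduction relative to untreated controls, normalised to RIBOGREEN total RNA. mRNA was quantified by real-time PCR (RTS3454) about 24 h after electroporation. Each 20-mer MOE gapmer was delivered at 3,000 nM into 20,000 HepaRG cells per well.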", "units": {"% inhibition": "%"}, "values": [
      {"substance": "530961 (antisense eT*eT*eG*eG*e[5mC]*dA*dT*dT*d[5mC]*dT*dT*d[5mC]*dA*dA*d[5mC]*eA*e[5mC]*eT*eG*e[5mC]) [compound 530961]", "% inhibition": 88},
      {"substance": "530942 (antisense e[5mC]*eA*eG*eG*eA*dA*dA*d[5mC]*dT*dG*dT*dA*dG*d[5mC]*dA*eA*eA*e[5mC]*eA*eA) [compound 530942]", "% inhibition": 22},
      {"substance": "531003 (eA*eA*e[5mC]*e[5mC]*eA*dG*dA*dG*d[5mC]*dT*d[5mC]*d[5mC]*d[5mC]*dT*dT*eG*eT*eG*eT*e[5mC]; antisense) [compound 531003]", "% inhibition": 49},
      {"substance": "530985 (antisense eA*eA*eA*eT*eT*dT*dT*dA*dG*dA*dA*dT*dG*dG*d[5mC]*eA*eG*eG*eG*eT) [compound 530985]", "% inhibition": 32},
      {"substance": "30929 (antisense eA*eA*e[5mC]*eG*eG*dT*d[5mC]*dT*dT*d[5mC]*dA*dA*dG*d[5mC]*dT*eG*eT*eT*e[5mC]*eT) [compound 30929]", "% inhibition": 59}
    ]},
    {"test_system": "human PKK mRNA", "experiment": "Antisense inhibition of human PKK mRNA in HepaRG cells, 3,000 nM (Example 1)", "assay_type": "cell-based", "settings": "Table 2; PKK mRNA, HepaRG cells, 3,000 nM, electroporation, ~24 h, relative to untreated control cells", "how_it_was_run": "as §1", "units": {"% inhibition": "%"}, "values": [
      {"substance": "531032 (antisense eT*eG*eG*eT*eT*dT*dT*dT*dG*dG*dA*dA*dT*dT*d[5mC]*eA*eG*eT*eG*eT) [compound 531032]", "% inhibition": 67},
      {"substance": "531039 (antisense eT*eA*e[5mC]*e[5mC]*e[5mC]*dA*dA*d[5mC]*dA*dG*dT*dT*dG*dG*dT*eA*eT*eA*eA*eA) [compound 531039]", "% inhibition": 36},
      {"substance": "531046 (antisense eG*eA*eT*eA*eT*d[5mC]*dT*dT*dT*dT*d[5mC]*dT*dG*dG*d[5mC]*eA*eT*eT*e[5mC]*eT) [compound 531046]", "% inhibition": 54},
      {"substance": "482586 (antisense eA*e[5mC]*e[5mC]*e[5mC]*eA*dA*d[5mC]*dA*dG*dT*dT*dG*dG*dT*dA*eT*eA*eA*eA*eT) [compound 482586]", "% inhibition": 0},
      {"substance": "531050 (antisense eT*eT*eG*eG*eG*dT*dT*dA*dT*dT*dT*dT*dA*dT*dA*eA*eT*e[5mC]*eT*eT) [compound 531050]", "% inhibition": 18},
      {"substance": "531066 (eA*eG*e[5mC]*eG*eA*d[5mC]*dT*dT*dT*dG*dG*dT*dG*dT*dA*eG*eA*e[5mC]*eA*e[5mC]; antisense) [compound 531066]", "% inhibition": 67}
    ]},
    {"test_system": "human PKK mRNA", "experiment": "Antisense inhibition of human PKK mRNA in HepaRG cells, 3,000 nM (Example 1)", "assay_type": "cell-based", "settings": "Table 3; HepaRG cells, electroporation with 3,000 nM antisense oligonucleotide, approx. 24 hours; PKK mRNA by RT-PCR (RTS3454), relative to untreated control cells", "how_it_was_run": "as §1", "units": {"% inhibition": "%"}, "values": [
      {"substance": "531094 (eG*eA*eA*eT*eG*dT*d[5mC]*dA*dG*dG*d[5mC]*d[5mC]*dT*d[5mC]*dT*eG*eG*eG*e[5mC]*e[5mC]; antisense) [compound 531094]", "% inhibition": 48},
      {"substance": "531091 (eT*e[5mC]*eA*eG*e[5mC]*d[5mC]*d[5mC]*dA*dA*dT*dG*dT*d[5mC]*d[5mC]*dT*eA*eA*e[5mC]*e[5mC]*eT; antisense) [compound 531091]", "% inhibition": 35},
      {"substance": "531135 (antisense eA*eA*eT*eG*eT*dT*dG*dT*dG*dA*dA*dT*dA*d[5mC]*d[5mC]*eA*eT*e[5mC]*e[5mC]*e[5mC]) [compound 531135]", "% inhibition": 16},
      {"substance": "531107 (antisense eT*e[5mC]*eA*eA*e[5mC]*dT*d[5mC]*dA*d[5mC]*dA*d[5mC]*d[5mC]*dT*dG*dA*e[5mC]*e[5mC]*eT*eA*eA) [compound 531107]", "% inhibition": 30},
      {"substance": "531113 (antisense eA*eA*e[5mC]*eA*eG*dA*d[5mC]*dA*d[5mC]*dA*dT*dT*dA*dT*dT*eT*eA*eT*eA*eT) [compound 531113]", "% inhibition": 0},
      {"substance": "531150 (antisense eT*e[5mC]*e[5mC]*eT*eT*dA*dA*dT*dA*dG*dT*d[5mC]*dA*dT*dA*eG*e[5mC]*eA*eG*eG) [compound 531150]", "% inhibition": 48}
    ]},
    {"test_system": "human PKK mRNA", "experiment": "Antisense inhibition of human PKK mRNA in HepaRG cells, 3,000 nM (Example 1)", "assay_type": "cell-based", "settings": "Table 4; HepaRG cells, electroporation with 3,000 nM antisense oligonucleotide, approx. 24 hours; PKK mRNA by RT-PCR (RTS3454), relative to untreated control cells", "how_it_was_run": "as §1", "units": {"% inhibition": "%"}, "values": [
      {"substance": "531187 (eA*eT*e[5mC]*eT*eA*dT*dT*dG*dG*dT*dT*d[5mC]*dA*dG*dG*eA*eG*e[5mC]*e[5mC]*eA; antisense) [compound 531187]", "% inhibition": 72},
      {"substance": "531226 (eG*eA*e[5mC]*eA*eG*dT*dA*dG*dA*dG*dA*d[5mC]*dT*dG*dG*eG*eA*eA*eG*eG; antisense) [compound 531226]", "% inhibition": 12},
      {"substance": "531210 (eA*eG*eA*e[5mC]*eA*dT*dT*dG*dT*d[5mC]*dA*dA*dA*dT*dG*eT*e[5mC]*e[5mC]*e[5mC]*e[5mC]; antisense) [compound 531210]", "% inhibition": 60}
    ]}
  ]
}
